According to patent publication US8093281B2, “Indazoles as glucocorticoid receptor ligands” (Glaxo Group Limited, priority 2005, dated 2012):

System: NFkB activity
Test: Glucocorticoid mediated transrepression of NFkB activity (A549 cells, ELAM promoter alkaline phosphatase reporter, TNFα stimulated)
Type: cell-based
Conditions: Homo sapiens, A549, 16 h, Human A549 lung epithelial cells, 3 ng/ml human recombinant TNFα, read-out: pEC50, transrepression of NFkB activity (converted)
Text: Human A549 lung epithelial cells were engineered to contain a secreted placental alkaline phosphatase gene under the control of the distal region of the NFkB dependent ELAM promoter as previously described in Ray, K. P., Farrow, S., Daly, M., Talabot, F. and Searle, N. “Induction of the E-selectin promoter by interleukin 1 and tumour necrosis factor alpha, and inhibition by glucocorticoids” Biochemical Journal (1997) 328: 707-15.
Compounds were solvated and diluted in DMSO, and transferred directly into assay plates such that the final concentration of DMSO was 0.7%. Following the addition of cells (40K per well), plates were incubated for 1 hr prior to the addition of 3 ng/ml human recombinant TNFα. Following continued incubation for 16 hr, alkaline phosphatase activity was determined by measuring the change in optical density at 405 nm with time following the addition of 0.7 volumes of assay buffer (1 mg/ml p-nitrophenylphosphate dissolved in 1M diethanolamine, 0.28M NaCl, 0.5 mM MgCl2). Dose response curves were constructed from which EC50 values were estimated.

| SMILES | EC50 [nM] |
| --- | --- |
| COc1ccc(F)cc1C(C)(C)CC(O)(CNc1cccc2c1cnn2-c1ccccc1F)C(F)(F)F (racemic) [Example 1, 1,1,1-Trifluoro-4-[5-fluoro-2-(methyloxy)phenyl]-2-({[1-(2-fluorophenyl)-1H-indazol-4-yl]amino}methyl)-4-methyl-2-pentanol] | < 3.16 |
| COc1ccc(F)cc1C(C)(C)CC(O)(CNc1cccc2c1cnn2-c1ccc(F)cc1)C(F)(F)F (racemic) [Example 2, 1,1,1-Trifluoro-4-[5-fluoro-2-(methyloxy)phenyl]-2-({[1-(4-fluorophenyl)-1H-indazol-4-yl]amino}methyl)-4-methyl-2-pentanol] | < 3.16 |
| COc1ccc(F)cc1C(C)(C)CC(O)(CNc1cccc2c1cnn2-c1ccc(F)cc1F)C(F)(F)F (racemic) [Example 4, 2-({[1-(2,4-Difluorophenyl)-1H-indazol-4-yl]amino}methyl)-1,1′-trifluoro-4-[5-fluoro-2-(methyloxy)phenyl]-4-methyl-2-pentanol] | < 3.16 |
| CCOC(=O)c1cccc(-n2ncc3c(NCC(O)(CC(C)(C)c4cc(F)ccc4OC)C(F)(F)F)cccc32)c1 (racemic) [Example 6, Ethyl 3-(4-{[4-[5-fluoro-2-(methyloxy)phenyl]-2-hydroxy-4-methyl-2-(trifluoromethyl)pentyl]amino}-1H-indazol-1-yl)benzoate] | < 3.16 |
| CC(C)(CC(O)(CNc1cccc2c1cnn2-c1ccccc1)C(F)(F)F)c1cccc2c1OCC2 (racemic) [Example 8, 4-(2,3-Dihydro-1-benzofuran-7-yl)-1,1,1-trifluoro-4-methyl-2-{[(1-phenyl-1H-indazol-4-yl)amino]methyl}-2-pentanol] | < 3.16 |
| CCOC(=O)c1cccc(-n2ncc3c(NCC(O)(CC(C)(C)c4cccc5c4OCC5)C(F)(F)F)cccc32)c1 (racemic) [Example 9, Ethyl 3-(4-{[4-(2,3-dihydro-1-benzofuran-7-yl)-2-hydroxy-4-methyl-2-(trifluoromethyl)pentyl]amino}-1H-indazol-1-yl)benzoate] | < 3.16 |
| CC(C)(CC(O)(CNc1cccc2c1cnn2-c1ccccc1F)C(F)(F)F)c1cccc2c1OCC2 (racemic) [Example 10, 4-(2,3-Dihydro-1-benzofuran-7-yl)-1,1,1-trifluoro-2-({[1-(2-fluorophenyl)-1H-indazol-4-yl]amino}methyl)-4-methyl-2-pentanol] | < 3.16 |
| CC(C)(CC(O)(CNc1cccc2c1cnn2-c1ccc(F)cc1)C(F)(F)F)c1cccc2c1OCC2 (racemic) [Example 11, 4-(2,3-Dihydro-1-benzofuran-7-yl)-1,1,1-trifluoro-2-({[1-(4-fluorophenyl)-1H-indazol-4-yl]amino}methyl)-4-methyl-2-pentanol] | < 3.16 |
| CC(C)(CC(O)(CNc1cccc2c1cnn2-c1ccc(F)cc1F)C(F)(F)F)c1cccc2c1OCC2 (racemic) [Example 12, 2-({[1-(2,4-Difluorophenyl)-1H-indazol-4-yl]amino}methyl)-4-(2,3-dihydro-1-benzofuran-7-yl)-1,1,1-trifluoro-4-methyl-2-pentanol] | < 3.16 |
| CC(C)(CC(O)(CNc1cccc2c1cnn2-c1ccncc1)C(F)(F)F)c1cccc2c1OCC2 (racemic) [Example 13, 4-(2,3-Dihydro-1-benzofuran-7-yl)-1,1,1-trifluoro-4-methyl-2-({[1-(4-pyridinyl)-1H-indazol-4-yl]amino}methyl)-2-pentanol] | < 3.16 |
| COC(=O)c1cccc(-n2ncc3c(NCC(O)(CC(C)(C)c4cc(F)ccc4OC)C(F)(F)F)cccc32)c1 (racemic) [Example 14, Methyl 3-(4-{[4-[5-fluoro-2-(methyloxy)phenyl]-2-hydroxy-4-methyl-2-(trifluoromethyl)pentyl]amino}-1H-indazol-1-yl)benzoate] | < 3.16 |
| COc1ccc(F)cc1C(C)(C)CC(O)(CNc1cc(C)cc2c1cnn2-c1ccccc1)C(F)(F)F (racemic) [Example 15, 1,1,1-Trifluoro-4-[5-fluoro-2-(methyloxy)phenyl]-4-methyl-2-{[(6-methyl-1-phenyl-1H-indazol-4-yl)amino]methyl}-2-pentanol] | < 3.16 |
